Activity calls are given as the source filed them. The rule behind the calls is not given here.
Legend:
HGC-27 [1] = assay: Induction of apoptosis in human HGC-27 cells assessed as ROS levels at 6 uM measured after 24 hrs by DCFH-DA staining based flow cytometry assay (reference value: 6.8%); type: functional
HGC-27 [2] = assay: Induction of apoptosis in human HGC-27 cells assessed as viable cells at 9 uM measured after 48 hrs by AnnexinV/FITC staining based flow cytometry method (reference value: 93.18%); type: functional; settings: read-out: Activity
HGC-27 [3] = assay: Inhibition of cell migration in human HGC-27 cells at 1.5 to 6 uM measured after 24 to 48 hrs by wound healing assay based inverted microscopic analysis; type: functional; settings: dose 1.5-6 µM, time 24-48 hrs
MGC-803 [4] = assay: Induction of apoptosis in human MGC-803 cells assessed as late apoptotic cells at 2.5 uM measured after 24 hrs by AnnexinV/FITC staining based flow cytometry method (reference value: 2%); type: functional
HGC-27 [5] = assay: Induction of apoptosis in human HGC-27 cells assessed as necrotic cells at 3 uM measured after 24 hrs by AnnexinV/FITC staining based flow cytometry method (reference value: 1.2%); type: functional
[6] = molecular target: T1, NEDD8-activating enzyme E1 regulatory subunit (Homo sapiens) (UniProt Q13564); assay: Inhibition of NAE-mediated neddylation in human MGC-803 cells assessed as cullin4A-Nedd8 adduct formation at 2.5 to 7.5 uM measured after 24 hrs by western blot assay; type: cell-based; settings: dose 2.5-7.5 µM
T1 sequence (whole entry): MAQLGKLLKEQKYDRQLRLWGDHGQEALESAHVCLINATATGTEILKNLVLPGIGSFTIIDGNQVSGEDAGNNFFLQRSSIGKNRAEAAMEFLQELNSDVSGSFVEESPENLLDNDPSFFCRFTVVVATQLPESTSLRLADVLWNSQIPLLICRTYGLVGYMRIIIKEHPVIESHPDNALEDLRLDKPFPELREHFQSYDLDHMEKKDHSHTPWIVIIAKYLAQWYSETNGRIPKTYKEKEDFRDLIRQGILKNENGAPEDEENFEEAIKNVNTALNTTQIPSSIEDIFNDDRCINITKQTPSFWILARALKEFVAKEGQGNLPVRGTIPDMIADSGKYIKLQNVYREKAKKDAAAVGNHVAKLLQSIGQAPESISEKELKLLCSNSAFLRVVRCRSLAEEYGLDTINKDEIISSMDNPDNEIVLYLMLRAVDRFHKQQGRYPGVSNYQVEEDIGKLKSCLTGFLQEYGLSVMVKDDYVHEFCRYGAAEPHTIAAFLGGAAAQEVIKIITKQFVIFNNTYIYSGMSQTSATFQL

MGC-803 [7] = assay: Induction of apoptosis in human MGC-803 cells assessed as viable cells at 7.5 uM measured after 24 hrs by AnnexinV/FITC staining based flow cytometry method (reference value: 94.8%); type: functional; settings: read-out: Activity
MGC-803 [8] = assay: Cell cycle arrest in human MGC-803 cells assessed as accumulation of cells at G2/M phase at 2.5 uM measured after 24 hrs by Flowcytometry assay (reference value: 13.71%); type: functional
HGC-27 [9] = assay: Induction of apoptosis in human HGC-27 cells assessed as viable cells at 6 uM measured after 24 hrs by AnnexinV/FITC staining based flow cytometry method (reference value: 95.7%); type: functional; settings: read-out: Activity
MGC-803 [10] = assay: Induction of apoptosis in human MGC-803 cells assessed as necrotic cells at 2.5 uM measured after 48 hrs by AnnexinV/FITC staining based flow cytometry method (reference value: 0.2%); type: functional
[11] = molecular target: T1, NEDD8-activating enzyme E1 regulatory subunit (Homo sapiens); assay: Inhibition of NAE-mediated neddylation in human MGC-803 cells assessed as cullin3-Nedd8 adduct formation at 2.5 to 7.5 uM measured after 24 hrs by western blot assay; type: cell-based; settings: dose 2.5-7.5 µM
HGC-27 [12] = assay: Induction of apoptosis in human HGC-27 cells assessed as ROS levels at 9 uM measured after 24 hrs by DCFH-DA staining based flow cytometry assay (reference value: 6.8%); type: functional
[13] = molecular target: T1, NEDD8-activating enzyme E1 regulatory subunit (Homo sapiens); assay: Inhibition of NAE-mediated neddylation in human MGC-803 cells assessed as cullin1-Nedd8 adduct formation at 2.5 to 7.5 uM measured after 24 hrs by western blot assay; type: cell-based; settings: dose 2.5-7.5 µM
MGC-803 [14] = assay: Cell cycle arrest in human MGC-803 cells assessed as accumulation of cells at S phase at 5 uM measured after 24 hrs by Flowcytometry assay (reference value: 36.51%); type: functional
HGC-27 [15] = assay: Induction of apoptosis in human HGC-27 cells assessed as early apoptotic cells at 6 uM measured after 48 hrs by AnnexinV/FITC staining based flow cytometry method (reference value: 5.8%); type: functional
HGC-27 [16] = assay: Induction of apoptosis in human HGC-27 cells assessed as viable cells at 9 uM measured after 24 hrs by AnnexinV/FITC staining based flow cytometry method (reference value: 95.7%); type: functional; settings: read-out: Activity
MGC-803 [17] = assay: Antiproliferative activity against human MGC-803 cells assessed as inhibition of cell proliferation at 0.39 to 50 uM measured upto 72 hrs by MTT assay; type: functional, cell-based; settings: dose 0.39-50 µM, time hrs <=72
MGC-803 [18] = assay: Induction of apoptosis in human MGC-803 cells assessed as late apoptotic cells at 5 uM measured after 48 hrs by AnnexinV/FITC staining based flow cytometry method (reference value: 0.9%); type: functional
[19] = molecular target: T1, NEDD8-activating enzyme E1 regulatory subunit (Homo sapiens); assay: Inhibition of NAE-mediated neddylation in human MGC-803 cells assessed as cullin2-Nedd8 adduct formation at 2.5 to 7.5 uM measured after 24 hrs by western blot assay; type: cell-based; settings: dose 2.5-7.5 µM
HGC-27 [20] = assay: Induction of apoptosis in human HGC-27 cells assessed as early apoptotic cells at 6 uM measured after 24 hrs by AnnexinV/FITC staining based flow cytometry method (reference value: 0.7%); type: functional
MGC-803 [21] = assay: Induction of apoptosis in human MGC-803 cells assessed as necrotic cells at 7.5 uM measured after 24 hrs by AnnexinV/FITC staining based flow cytometry method (reference value: 1.9%); type: functional
A549 = assay: Antiproliferative activity against human A549 cells assessed as inhibition of cell proliferation measured after 72 hrs by MTT assay; type: functional, cell-based; settings: A549, 72 h
MGC-803 [22] = assay: Induction of apoptosis in human MGC-803 cells assessed as early apoptotic cells at 5 uM measured after 24 hrs by AnnexinV/FITC staining based flow cytometry method (reference value: 1.3%); type: functional
HGC-27 [23] = assay: Induction of apoptosis in human HGC-27 cells assessed as late apoptotic cells at 9 uM measured after 48 hrs by AnnexinV/FITC staining based flow cytometry method (reference value: 1%); type: functional
[24] = molecular target: T1, NEDD8-activating enzyme E1 regulatory subunit (Homo sapiens); assay: Inhibition of NAE-mediated neddylation in human MGC-803 cells assessed as cullin5-Nedd8 adduct formation at 2.5 to 7.5 uM measured after 24 hrs by western blot assay; type: cell-based; settings: dose 2.5-7.5 µM
MGC-803 [25] = assay: Induction of apoptosis in human MGC-803 cells assessed as ROS levels at 5 uM measured after 24 hrs by DCFH-DA staining based flow cytometry assay (reference value: 3.3%); type: functional
MGC-803 [26] = assay: Cell cycle arrest in human MGC-803 cells assessed as accumulation of cells at G2/M phase at 7.5 uM measured after 24 hrs by Flowcytometry assay (reference value: 13.71%); type: functional
MGC-803 [27] = assay: Induction of apoptosis in human MGC-803 cells assessed as early apoptotic cells at 2.5 uM measured after 48 hrs by AnnexinV/FITC staining based flow cytometry method (reference value: 1.5%); type: functional

inhibition [6]: inactive
inhibition [11]: Active
inhibition [13]: Active
inhibition [19]: inactive
IC50 (A549): 3.88 µM
inhibition [24]: Active
SMILES: CCCCCc1ccc(NC(=O)C2CCN(C/C=C/c3ccccc3)CC2)cc1
Activity (HGC-27 [1]): 14.5%
viability at 9 µM (HGC-27 [2]): 0.3%
inhibition (HGC-27 [3]): Dose-Dependent Effect
Activity (MGC-803 [4]): 3.6%
Activity (HGC-27 [5]): 0.4%
viability at 7.5 µM (MGC-803 [7]): 9.1%
Activity (MGC-803 [8]): 17.77%
viability at 6 µM (HGC-27 [9]): 25.4%
Activity (MGC-803 [10]): 2.9%
Activity (HGC-27 [12]): 25.7%
Activity (MGC-803 [14]): 33.81%
Activity (HGC-27 [15]): 32.2%
viability at 9 µM (HGC-27 [16]): 20.9%
Activity (MGC-803 [17]): Dose-Dependent Effect
Activity (MGC-803 [18]): 51%
Activity (HGC-27 [20]): 23.1%
Activity (MGC-803 [21]): 6.9%
Activity (MGC-803 [22]): 0.8%
Activity (HGC-27 [23]): 99.5%
Activity (MGC-803 [25]): 5.4%
Activity (MGC-803 [26]): 25.94%
Activity (MGC-803 [27]): 3%

From ChEMBL document CHEMBL5038615, “Discovery of a cinnamyl piperidine derivative as new neddylation inhibitor for gastric cancer treatment” (Eur J Med Chem, 2021)
